Experimental data taken from patent US20020048549A1, “Radioactive transition metal nitride heterocomplex” (priority 1996, published 2002).

Assay: Biodistribution of 99mTcN-DESI in SD rats (Group A alone, Group B with unlabeled desipramine)
Type: in vivo
Experimental: The biodistribution of the ^99mTcN-DESI in SD rats obtained in Example 15 was measured.
Before being injected into the rats, the ^99mTcN-DESI was separated and purified from the excess and free bidentate ligand by HPLC. The active ingredient of the complex was further purified by passage through a Sep-Pak cartridge activated with 5 ml of 95% ethanol. The final active ingredient was recovered with 95% ethanol and diluted with physiological saline containing 10% Tween 80.
The rats were divided into two groups, group A and group B. Into each rat in group A was injected 20 μCi of the ^99mTcN-DESI. Into each rat in group B were injected 20 μCi of the ^99mTcN-DESI and 1.0 mg/kg of unlabeled desipramine at the same time.
SD rats weighing about 250 g were put under intraperitoneal anesthesia with a mixture of xylazine (18 mg/kg) and ketamine (15 mg/kg) and given an injection in the jugular vein. Then, the organs (brain, heart, lung, liver, spleen, kidney, muscle, adrenal, and submaxillary gland) were excised from the rats at different intervals of time, washed and then weighed. In addition, blood samples were collected and then weighed. The data on the biodistribution are expressed as the mean±significant difference of the percentage of radioactivity level per gram of the organ weight based on the dose of radioactivity, (% dose/g). The measurement was carried out using groups of 3 rats each.

[1] = Group A (complex alone), 10 min
[2] = Group A (complex alone), 30 min
[3] = Group A (complex alone), 60 min
[4] = Group A (complex alone), 120 min
[5] = Group A (complex alone), 150 min
[6] = Group B (with 1.0 mg/kg unlabeled desipramine), 2 min
[7] = Group B (with 1.0 mg/kg unlabeled desipramine), 5 min
[8] = Group B (with 1.0 mg/kg unlabeled desipramine), 10 min
[9] = Group B (with 1.0 mg/kg unlabeled desipramine), 30 min
[10] = Group B (with 1.0 mg/kg unlabeled desipramine), 60 min
[11] = Group B (with 1.0 mg/kg unlabeled desipramine), 120 min
[12] = Group B (with 1.0 mg/kg unlabeled desipramine), 150 min

In the case of `COCCC[P+]1(CCCOC)CCN(CCOC)CC[P+](CCCOC)(CCCOC)[99Tc-2]12(#[N])[NH]C(C(=O)N(C)CCCN1c3ccccc3CCc3ccccc31)C[S]2` (centres unmarked) [^99mTcN-DESI], the “Adrenal glands % dose/g” value (Group A (complex alone), 2 min) is reported as 4.227 ± 0.089 % dose/g, the Blood % dose/g (Group A (complex alone), 2 min) is reported as 0.383 ± 0.287 % dose/g and the Brain % dose/g (Group A (complex alone), 2 min) is reported as 0.082 ± 0.010 % dose/g. It also gave a Heart % dose/g (Group A (complex alone), 2 min) of 0.904 ± 0.062 % dose/g, a Kidney % dose/g (Group A (complex alone), 2 min) of 6.518 ± 0.821 % dose/g and a Liver % dose/g (Group A (complex alone), 2 min) of 7.259 ± 0.005 % dose/g. It also gave a Lung % dose/g (Group A (complex alone), 2 min) of 0.565 ± 0.074 % dose/g, a Muscle % dose/g (Group A (complex alone), 2 min) of 0.110 ± 0.004 % dose/g and a Spleen % dose/g (Group A (complex alone), 2 min) of 1.833 ± 0.249 % dose/g. For the same compound, the “Submaxillary glands % dose/g” value (Group A (complex alone), 2 min) was 1.791 ± 0.249 % dose/g, the “Adrenal glands % dose/g” value (Group A (complex alone), 5 min) was 3.710 ± 0.682 % dose/g and the Blood % dose/g (Group A (complex alone), 5 min) was 0.349 ± 0.033 % dose/g. It also gave a Brain % dose/g (Group A (complex alone), 5 min) of 0.079 ± 0.002 % dose/g, a Heart % dose/g (Group A (complex alone), 5 min) of 0.881 ± 0.071 % dose/g and a Kidney % dose/g (Group A (complex alone), 5 min) of 6.193 ± 0.421 % dose/g. For the same compound, the Liver % dose/g (Group A (complex alone), 5 min) was 5.798 ± 0.549 % dose/g, the Lung % dose/g (Group A (complex alone), 5 min) was 0.425 ± 0.094 % dose/g and the Muscle % dose/g (Group A (complex alone), 5 min) was 0.105 ± 0.010 % dose/g. For the same compound, the Spleen % dose/g (Group A (complex alone), 5 min) was 1.927 ± 0.155 % dose/g, the “Submaxillary glands % dose/g” value (Group A (complex alone), 5 min) was 1.721 ± 0.460 % dose/g and the “Adrenal glands % dose/g” value [1] was 5.353 ± 0.339 % dose/g. The Blood % dose/g [1] was 0.212 ± 0.012 % dose/g, the Brain % dose/g [1] was 0.076 ± 0.003 % dose/g and the Heart % dose/g [1] was 0.894 ± 0.016 % dose/g. It also gave a Kidney % dose/g [1] of 6.295 ± 0.329 % dose/g, a Liver % dose/g [1] of 4.539 ± 0.286 % dose/g and a Lung % dose/g [1] of 0.399 ± 0.011 % dose/g. For the same compound, the Muscle % dose/g [1] was 0.096 ± 0.009 % dose/g, the Spleen % dose/g [1] was 2.139 ± 0.200 % dose/g and the “Submaxillary glands % dose/g” value [1] was 1.876 ± 0.030 % dose/g. The “Adrenal glands % dose/g” value [2] was 5.153 ± 0.039 % dose/g, the Blood % dose/g [2] was 0.095 ± 0.024 % dose/g and the Brain % dose/g [2] was 0.070 ± 0.005 % dose/g. It also gave a Heart % dose/g [2] of 0.951 ± 0.103 % dose/g, a Kidney % dose/g [2] of 10.11 ± 1.762 % dose/g and a Liver % dose/g [2] of 3.069 ± 0.672 % dose/g. For the same compound, the Lung % dose/g [2] was 0.351 ± 0.085 % dose/g, the Muscle % dose/g [2] was 0.098 ± 0.021 % dose/g and the Spleen % dose/g [2] was 1.965 ± 0.158 % dose/g. For the same compound, the “Submaxillary glands % dose/g” value [2] was 2.065 ± 0.069 % dose/g, the “Adrenal glands % dose/g” value [3] was 4.800 ± 1.737 % dose/g and the Blood % dose/g [3] was 0.069 ± 0.008 % dose/g. The Brain % dose/g [3] was 0.064 ± 0.003 % dose/g, the Heart % dose/g [3] was 0.931 ± 0.025 % dose/g and the Kidney % dose/g [3] was 6.227 ± 1.020 % dose/g. For the same compound, the Liver % dose/g [3] was 2.809 ± 0.739 % dose/g, the Lung % dose/g [3] was 0.224 ± 0.070 % dose/g and the Muscle % dose/g [3] was 0.108 ± 0.015 % dose/g. For the same compound, the Spleen % dose/g [3] was 1.873 ± 0.667 % dose/g, the “Submaxillary glands % dose/g” value [3] was 1.491 ± 1.149 % dose/g and the “Adrenal glands % dose/g” value [4] was 4.220 ± 0.182 % dose/g. The Blood % dose/g [4] was 0.068 ± 0.001 % dose/g, the Brain % dose/g [4] was 0.051 ± 0.001 % dose/g and the Heart % dose/g [4] was 0.806 ± 0.080 % dose/g. For the same compound, the Kidney % dose/g [4] was 5.538 ± 0.607 % dose/g, the Liver % dose/g [4] was 1.463 ± 0.186 % dose/g and the Lung % dose/g [4] was 0.151 ± 0.001 % dose/g. For the same compound, the Muscle % dose/g [4] was 0.397 ± 0.033 % dose/g, the Spleen % dose/g [4] was 1.453 ± 0.085 % dose/g and the “Submaxillary glands % dose/g” value [4] was 1.351 ± 0.037 % dose/g. The “Adrenal glands % dose/g” value [5] was 5.013 ± 1.061 % dose/g, the Blood % dose/g [5] was 0.058 ± 0.008 % dose/g and the Brain % dose/g [5] was 0.034 ± 0.004 % dose/g. For the same compound, the Heart % dose/g [5] was 0.884 ± 0.075 % dose/g, the Kidney % dose/g [5] was 7.182 ± 0.349 % dose/g and the Liver % dose/g [5] was 1.375 ± 0.054 % dose/g. It also gave a Lung % dose/g [5] of 0.194 ± 0.002 % dose/g, a Muscle % dose/g [5] of 0.090 ± 0.009 % dose/g and a Spleen % dose/g [5] of 1.461 ± 0.132 % dose/g. For the same compound, the “Submaxillary glands % dose/g” value [5] was 1.976 ± 0.293 % dose/g, the “Adrenal glands % dose/g” value [6] was 4.314 ± 0.718 % dose/g and the Blood % dose/g [6] was 0.467 ± 0.011 % dose/g. For the same compound, the Brain % dose/g [6] was 0.032 ± 0.004 % dose/g, the Heart % dose/g [6] was 0.793 ± 0.037 % dose/g and the Kidney % dose/g [6] was 5.492 ± 0.602 % dose/g. For the same compound, the Liver % dose/g [6] was 5.149 ± 0.787 % dose/g, the Lung % dose/g [6] was 0.488 ± 0.042 % dose/g and the Muscle % dose/g [6] was 0.103 ± 0.002 % dose/g. For the same compound, the Spleen % dose/g [6] was 1.841 ± 0.197 % dose/g, the “Submaxillary glands % dose/g” value [6] was 1.878 ± 0.09 % dose/g and the “Adrenal glands % dose/g” value [7] was 4.480 ± 0.991 % dose/g. For the same compound, the Blood % dose/g [7] was 0.277 ± 0.028 % dose/g, the Brain % dose/g [7] was 0.029 ± 0.003 % dose/g and the Heart % dose/g [7] was 0.819 ± 0.052 % dose/g. The Kidney % dose/g [7] was 5.899 ± 1.397 % dose/g, the Liver % dose/g [7] was 6.420 ± 0.378 % dose/g and the Lung % dose/g [7] was 0.353 ± 0.028 % dose/g. The Muscle % dose/g [7] was 0.101 ± 0.014 % dose/g, the Spleen % dose/g [7] was 2.032 ± 0.197 % dose/g and the “Submaxillary glands % dose/g” value [7] was 1.786 ± 0.201 % dose/g. For the same compound, the “Adrenal glands % dose/g” value [8] was 4.349 ± 0.164 % dose/g, the Blood % dose/g [8] was 0.170 ± 0.020 % dose/g and the Brain % dose/g [8] was 0.018 ± 0.001 % dose/g. It also gave a Heart % dose/g [8] of 0.814 ± 0.023 % dose/g, a Kidney % dose/g [8] of 5.192 ± 0.036 % dose/g and a Liver % dose/g [8] of 4.732 ± 0.057 % dose/g. The Lung % dose/g [8] was 0.348 ± 0.003 % dose/g, the Muscle % dose/g [8] was 0.086 ± 0.007 % dose/g and the Spleen % dose/g [8] was 1.559 ± 0.074 % dose/g. The “Submaxillary glands % dose/g” value [8] was 1.669 ± 0.126 % dose/g, the “Adrenal glands % dose/g” value [9] was 6.120 ± 2.224 % dose/g and the Blood % dose/g [9] was 0.169 ± 0.028 % dose/g. For the same compound, the Brain % dose/g [9] was 0.018 ± 0.003 % dose/g, the Heart % dose/g [9] was 0.832 ± 0.170 % dose/g and the Kidney % dose/g [9] was 7.883 ± 1.689 % dose/g. The Liver % dose/g [9] was 4.957 ± 0.168 % dose/g, the Lung % dose/g [9] was 0.27 ± 0.117 % dose/g and the Muscle % dose/g [9] was 0.091 ± 0.011 % dose/g. For the same compound, the Spleen % dose/g [9] was 1.339 ± 0.380 % dose/g, the “Submaxillary glands % dose/g” value [9] was 1.042 ± 0.123 % dose/g and the “Adrenal glands % dose/g” value [10] was 4.321 ± 0.712 % dose/g. The Blood % dose/g [10] was 0.074 ± 0.016 % dose/g, the Brain % dose/g [10] was 0.016 ± 0.002 % dose/g and the Heart % dose/g [10] was 0.693 ± 0.057 % dose/g. The Kidney % dose/g [10] was 5.176 ± 0.584 % dose/g, the Liver % dose/g [10] was 2.505 ± 0.113 % dose/g and the Lung % dose/g [10] was 0.253 ± 0.014 % dose/g. The Muscle % dose/g [10] was 0.110 ± 0.024 % dose/g, the Spleen % dose/g [10] was 1.403 ± 0.209 % dose/g and the “Submaxillary glands % dose/g” value [10] was 1.596 ± 0.138 % dose/g. The “Adrenal glands % dose/g” value [11] was 4.588 ± 0.985 % dose/g, the Blood % dose/g [11] was 0.050 ± 0.007 % dose/g and the Brain % dose/g [11] was 0.004 ± 0.000 % dose/g. The Heart % dose/g [11] was 0.745 ± 0.063 % dose/g, the Kidney % dose/g [11] was 5.737 ± 0.093 % dose/g and the Liver % dose/g [11] was 1.159 ± 0.09 % dose/g. The Lung % dose/g [11] was 0.206 ± 0.048 % dose/g, the Muscle % dose/g [11] was 0.343 ± 0.443 % dose/g and the Spleen % dose/g [11] was 1.865 ± 0.313 % dose/g. For the same compound, the “Submaxillary glands % dose/g” value [11] was 1.641 ± 0.280 % dose/g, the “Adrenal glands % dose/g” value [12] was 4.09 ± 0.294 % dose/g and the Blood % dose/g [12] was 0.050 ± 0.014 % dose/g. It also gave a Brain % dose/g [12] of 0.001 ± 0.000 % dose/g, a Heart % dose/g [12] of 0.815 ± 0.070 % dose/g and a Kidney % dose/g [12] of 5.646 ± 1.192 % dose/g. For the same compound, the Liver % dose/g [12] was 1.253 ± 0.006 % dose/g, the Lung % dose/g [12] was 0.163 ± 0.036 % dose/g and the Muscle % dose/g [12] was 0.096 ± 0.007 % dose/g. The Spleen % dose/g [12] was 1.637 ± 0.147 % dose/g, the “Submaxillary glands % dose/g” value [12] was 1.983 ± 0.339 % dose/g and the accumulation in adrenal (SD rats) was “very large amount”. The accumulation in heart (SD rats) was “considerable amount” and the “elimination through liver and kidney” value (SD rats) was “very rapidly eliminated”.
